Columns and labels:
[1] = Sodium caprate (C10) solution compatibility of iron compounds, with centrifugation test for precipitation; format: physicochemical; settings: in 55 mg/mL sodium caprate (C10)
Protocol: A test for precipitation was carried out. The solution formulations were centrifuged initially at 1000 rpm for 5 minutes. […] They were further centrifuged at 5000 rpm for 5 minutes.

[2] = Solution stability of sodium EDTA Fe+3 chelate with sodium caprate (visual observation); format: physicochemical; settings: sodium caprate 55 mg/mL

Compound | Sodium caprate solution compatibility (observation) [1] | Compatibility with sodium caprate formulation (pre-formulation) [2]
NCC(=O)[O-].NCC(=O)[O-].[Fe+2] [Ferrous Bisglycinate (Ferrochel), Ferrous Bisglycinate] | precipitates in the presence of C10 | –
Ferrous Gluconate [Ferrous Gluconate FCC/USP*] | C10 incompatibility | –
O=C(O)CN(CCN(CC(=O)O)CC(=O)O)CC(=O)O.[Fe+3].[Na+] [sodium EDTA iron chelate, ethylenediaminetetraacetic acid ferric sodium] | – | no gross incompatibility
